# Test results from patent US6770649B2, “1-[1-(hetero)aryl-1-perhydroxyalkylmethyl]-piperazine compounds, process for their preparation and pharmaceutical compositions containing them” (Solvay Pharmaceuticals GmbH, priority 2001, dated 2004).
# Where two headings read alike, the source gives them in different places.
# How the values were obtained:
# [1] = molecular target: T1, NK-2 receptors (Cavia porcellus, UniProt Q64077); experiment: Functional NK-2 antagonism on isolated guinea pig gall-bladder preparations (NKA-induced contraction); assay type: cell-based; conditions: inhibition of contraction caused by NKA 0.1 μmol/l; two hours' incubation; Pirbright-White guinea pig gall-bladder
# T1 construct: the NK-2 receptors present in the gall-bladder preparations; from tissue; host or cells: Pirbright-White guinea pig: isolated gall-bladder (A2); anaesthetised whole animal (A3)
# T1 sequence (Q64077 1-402): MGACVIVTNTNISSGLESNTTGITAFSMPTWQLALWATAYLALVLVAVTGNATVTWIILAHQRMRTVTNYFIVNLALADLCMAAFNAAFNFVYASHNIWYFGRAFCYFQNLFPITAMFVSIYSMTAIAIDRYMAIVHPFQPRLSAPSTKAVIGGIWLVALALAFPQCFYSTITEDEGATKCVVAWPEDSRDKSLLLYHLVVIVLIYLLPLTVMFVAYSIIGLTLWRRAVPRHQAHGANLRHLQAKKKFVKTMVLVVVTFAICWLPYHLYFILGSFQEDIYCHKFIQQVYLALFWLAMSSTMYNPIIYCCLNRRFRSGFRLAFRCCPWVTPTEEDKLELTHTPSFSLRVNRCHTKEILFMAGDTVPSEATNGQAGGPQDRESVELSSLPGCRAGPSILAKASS
# Description: 2. Determination of the Functional Antagonism of the Test Substances on Isolated Guinea Pig Tissue in vitro
# The NK-2 receptor-antagonising action of the test substances was determined on isolated gall-bladder preparations from Pirbright-White guinea pigs, held in an oxygen-saturated nutrient solution. To this end, the preparations were fastened on one hand in the nutrient solution to organ holders and on the other hand on a force meter by a thread.
# In this test the NK-2 receptors present in the gall-bladder preparations were stimulated with the natural NK-2 receptor agonist neurokinin A (=NKA; 0.1 μmol/l) and the contractions of the preparations caused thereby were measured as contractility in mN (=preliminary value) measured. Then NKA was rinsed out of the preparations with NKA-free solution and the test substances were added in a concentration of 10^−7 mol/l. After two hours' incubation of the preparations with the test substances, the contractions of the preparations then still caused by renewed NKA addition were again measured and the results were given as percentages, relative to the contractions initially measured, caused solely by NKA addition. The concentration of the test substances was increased iteratively in the subsequent experiments as a function of the result in logarithmic whole or half steps, until at least one concentration above or below 50% inhibition of contraction was determined (up to at most 10^−5 mol/l). For each concentration, the average value of inhibition of contraction was calculated from 2 to 4 preparations. In each case, the concentration of half-maximum inhibition (IC50) per test substance was calculated as characteristic variable. In each case the logarithmised value of the IC50 per test substance is given as pIC50 in [mol/l].
# [2] = molecular target: T1, NK-2 receptors; experiment: NK-2-receptor-antagonistic effectiveness in vivo in anaesthetised guinea pigs (NKA test stimulus); design: species or system guinea pig; conditions: for NK-2-receptor-antagonistic activity of colon motility, late drop in blood pressure and respiratory resistance (in words): cumulative administration i.v., antagonism detected 1 min. after administration had ended
# Source text: 3. Determination of the NK-2-receptor-antagonistic Effectiveness of the Test Substances in vivo
# The NK-2- and NK-1-antagonistic activities of the test substances were investigated in anaesthetised guinea pigs in each case after intravenous (=i.v.) and oral (=p.o.) administration in vivio. With the present test model it is possible to detect both NK-2-antagonistic effects in three different organ systems (respiratory tracts, colon and circulation) and NK-1-antagonistic effects (rapid drop in blood pressure) in an animal simultaneously.
# Pirbright-White guinea pigs of a body weight of 500-700 g were anaesthetised with ketamine/xylazine (67/13 mg/kg subcutaneously, initial dose, further doses administered as required). The animals were provided with an intravenous catheter in order to administer the substance and an intra-arterial catheter to measure the blood pressure. The animals were artificially ventilated via a tracheal cannula and the respiratory pressure was recorded by means of a pressure transducer. A balloon was introduced into the distal colon of the animals for manometric recording of colon motility by means of a pressure transducer. Blood pressure, heart rate, respiratory pressure and colonic pressure were measured continuously for each animal and plotted on a recorder and by means of a digital data-processing system. Neurokinin A (=NKA; 200 pmol/animal) was administered i.v. as a bolus as a test stimulus to stimulate the NK-1- and the NK-2 receptors. An addition of NKA of this type results in a great increase in respiratory pressure (bronchoconstriction) and colonic pressure, and in a biphasic drop in blood pressure. The first phase of hypotension (=phase of maximum hypotension within the first minute after administration of NKA) is mediated via NK-1 receptors, since they can be blocked completely by specific NK-1 receptor antagonists. The second phase of delayed hypotension (=phase of maximum hypotension after 2-5 min.) on the other hand is mediated via NK-2 receptors, since they can be blocked by specific NK-2 receptor antagonists. The doses of the test substances are given as ED50 values which each result in a response to the NKA test stimulus which is reduced to 50% of the initial value, as characteristic variables for the individual measurement parameters bronchoconstriction, colonic pressure and change in blood pressure mediated by NK-1 or NK-2.
# The antagonistic effects of the test substances were first investigated in cumulative form, the time of the NKA test stimulus being 1 min. after the administration of the respective doses of the test substances had ended. These ED50 values obtained from cumulative dose effect curves are plotted in Table 2 below. In order additionally to detect the variation over time of the antagonistic effects of the test substances, the action of the NKA test stimulus was determined at different times (1, 30, 60, 90, 120, 150 and 180 min.) after administration of the test substances.
# [3] = guinea pig, iv, cumulative dosing, NKA stimulus 1 min. after administration, NK-2-mediated late drop in blood pressure, read-out: ED50 Blood pressure, i.v. after 1 min. (cumulative)
# [4] = guinea pig, iv, cumulative dosing, NKA stimulus 1 min. after administration, respiratory resistance (bronchoconstriction), read-out: ED50 Respiratory resistance, i.v. after 1 min. (cumulative)
# [5] = guinea pig, iv, cumulative dosing, NKA stimulus (200 pmol/animal i.v.) 1 min. after administration, colonic pressure, read-out: ED50 Colonic pressure, i.v. after 1 min. (cumulative)
# [6] = guinea pig, iv, from AUC of antagonistic effect over 120 min after administration, colonic pressure, read-out: ED50 Colonic pressure, i.v. AUC over 120 min
# [7] = guinea pig, iv, from AUC over 120 min after administration, NK-2-mediated drop in blood pressure, read-out: ED50 Blood pressure, i.v. AUC over 120 min
# [8] = guinea pig, iv, from AUC over 120 min after administration, respiratory resistance, read-out: ED50 Respiratory resistance, i.v. AUC over 120 min
# [9] = guinea pig, po, from AUC over 180 min after administration, NK-2-mediated drop in blood pressure, read-out: ED50 Blood pressure, p.o. AUC over 180 min.
# [10] = guinea pig, po, from AUC over 180 min after administration, colonic pressure, read-out: ED50 Colonic pressure, p.o. AUC over 180 min.
# [11] = guinea pig, po, from AUC over 180 min after administration, respiratory resistance, read-out: ED50 Respiratory resistance, p.o. AUC over 180 min.
IC50 [1] [pM],"ED50 [2, 4] [µmol/kg]","ED50 [2, 5] [µmol/kg]","ED50 [2, 6] [µmol/kg]","ED50 [2, 8] [µmol/kg]","ED50 [2, 10] [µmol/kg]","ED50 [2, 11] [µmol/kg]","onset and duration of action (in words) ([2]; variation over time of the antagonistic effect, guinea pig)",SMILES,"NK-2-receptor-antagonistic activity of colon motility, late drop in blood pressure and respiratory resistance (in words) [2]","ED50 [2, 3] [µmol/kg]","ED50 [2, 7] [µmol/kg]","ED50 [2, 9] [µmol/kg]",inhibition of the NK-2 mechanisms at the colon compared with bronchoconstrictive or hypotensive NK-2 effects (in words) ([2]; comparison of the Table 2 values)
398,0.048,0.019,0.018,0.023,1.9,2,,CN(CC(CCN1CCN(C(c2ccco2)[C@H](O)[C@@H](O)[C@H](O)CO)CC1)c1ccc(Cl)c(Cl)c1)C(=O)c1ccccc1 (mixture of isomers) [Example 13],marked NK-2-receptor-antagonistic activity,0.08,0.025,24,
2000,0.078,0.042,,,3.2,6.7,,CC(=O)OC[C@@H](OC(C)=O)[C@H](OC(C)=O)[C@@H](OC(C)=O)C(c1ccsc1)N1CCN(CC[C@H](CN(C)C(=O)c2ccccc2)c2ccc(Cl)c(Cl)c2)CC1 (some centres unmarked) [Example 14],marked NK-2-receptor-antagonistic activity,0.063,,9.4,
158,0.033,0.017,0.0009,0.008,0.5,1.8,slow-onset action of long duration,"CN(C[C@@H](CCN1CCN(C(c2ccsc2)[C@H](O)[C@@H](O)[C@H](O)CO)CC1)c1ccc(Cl)c(Cl)c1)C(=O)c1ccccc1 (stereo partly drawn) [Example 1, N-((2S)-2-(3,4-dichlorophenyl)-4-{4-[(2S,3R,4R)-2,3,4,5-tetrahydroxy-1-(3-thienyl)pentyl]-1-piperazinyl}butyl)-N-methylbenzamide]",marked NK-2-receptor-antagonistic activity,0.025,0.006,2.7,more effective inhibition of the NK-2 mechanisms at the colon (colon preference)
